The values that follow come from US11135192B2, “Inhibitors for treating diseases characterized by atrial enlargement or remodeling” (Novartis AG, priority 2012, dated 2021).

The subject of data set [1] is patients with heart failure with preserved ejection fraction. Nature of the data set: Blood pressure change in the same HF-PEF study. The following applies: mean (SD). The class given is in vivo, human. The method, then:
(§1) The primary study endpoint is the change from baseline in NT-proBNP assessed at 12 weeks, and is analyzed using the last observation after baseline carried forward. Secondary endpoints include changes in echocardiography measures (left ventricular volumes and ejection fraction, left atrial volume, measures of diastolic function), change in blood pressure, as well as change in New York Heart Association Class (NYHA) clinical composite assessment and quality of life (Kansas City Cardiomyopathy Questionnaire).
(§2) Echocardiography studies are performed at screening, randomization, at week 12, and week 36 or at end of study or early termination visits. Echocardiograms performed at screening are evaluated by local readers for qualifying information. All other echocardiograms are only performed in patients meeting NT-proBNP entry criterion and are evaluated centrally. For assessment of global ventricular size and function, left ventricular end-diastolic and end-systolic volumes are obtained utilizing the Simpson's rule method and left ventricular ejection fraction is derived in the usual fashion. Maximal left atrial dimension is measured in the parasternal long-axis view, and left atrial volume is assessed with the Simpson's rule method and indexed to body surface area. Measurements are made in triplicate in accordance with the recommendations of the American Society of Echocardiography. Blood pressure and heart rate are measured at all study visits with a calibrated standard sphygmomanometer and appropriate size cuff. The use of concomitant medication is recorded at each study visit.

The test system is the same in data set [2]. Nature of the data set: Plasma NT-proBNP in the 37-week randomized, double-blind study of LCZ696 compared to valsartan. The class given is in vivo, human. Particulars: for NT-proBNP (pg/ml) at 12 weeks: 12 weeks / NT-proBNP (pg/ml) at 36 weeks: 36 weeks / NT-proBNP (pg/ml) at 12 weeks: Baseline / NT-proBNP (pg/ml) at 36 weeks: Baseline: geometric mean; for NT-proBNP (pg/ml) at 12 weeks: 12 weeks: after 12 weeks of treatment, target LCZ696 200 mg or valsartan 160 mg twice daily; for NT-proBNP (pg/ml) at 36 weeks: 36 weeks: after 36 weeks of treatment; for NT-proBNP (pg/ml) at 12 weeks: Baseline: baseline of patients analysed at 12 weeks; for NT-proBNP (pg/ml) at 36 weeks: Baseline: baseline of patients analysed at 36 weeks.
From the text: Men and women aged 40 years or older with a left ventricular ejection fraction of 45% or above, and a documented history of heart failure with associated signs or symptoms (dyspnea on exertion, orthopnea, paroxysmal dyspnea, and peripheral edema) are eligible. Patients are required to have an NT-proBNP>400 pg/mL at screening, be on diuretic therapy, and have a systolic blood pressure less than 140 mm Hg, or 160 mm Hg or less if on three or more blood pressure medications at randomization. Additional inclusion criteria include an estimated glomerular filtration rate (eGFR) of at least 30 ml/min/1.73 m^2 at screening (calculated by the Modification of Diet in Renal Disease formula) and a potassium of no more than 5.2 mmol/L.
as §1

The test system is the same in data set [3]. The data set can be described thus: Echocardiography (left atrial and left ventricular measures) in the same HF-PEF study. Format: in vivo, human. As to the method:
as §1, §2

For data set [4] the test system is unchanged. As to the method: as §1
The clinical composite assessment is based on a composite of the NYHA functional classification, patient global assessment and major adverse clinical events. […] Patients are determined to be worse if at the endpoint visit they experienced a major adverse cardiac event during the double blind treatment or reported worsening of their NYHA class or patient global assessment. Patients are considered unchanged if they are neither improved nor worsened.

The test system is the same in data set [5]. Nature of the data set: Safety and tolerability (adverse events, target dose achieved) in the same HF-PEF study.
[6] abbreviates: at 36 weeks, no unit printed in b206 (mm Hg).

Take `CCCCC(=O)N(Cc1ccc(-c2ccccc2-c2nnn[n-]2)cc1)C(C(=O)[O-])C(C)C.CCCCC(=O)N(Cc1ccc(-c2ccccc2-c2nnn[n-]2)cc1)C(C(=O)[O-])C(C)C.CCOC(=O)C(C)CC(Cc1ccc(-c2ccccc2)cc1)NC(=O)CCC(=O)[O-].CCOC(=O)C(C)CC(Cc1ccc(-c2ccccc2)cc1)NC(=O)CCC(=O)[O-].O.O.O.O.O.[Na+].[Na+].[Na+].[Na+].[Na+].[Na+]` [LCZ696, trisodium [3-((1S,3R)-1-biphenyl-4-ylmethyl-3-ethoxycarbonyl-1-butylcarbamoyl) propionate-(S)-3′-methyl-2′-(pentanoyl(2″-(tetrazol-5-ylate)biphenyl-4′-ylmethyl)amino)butyrate]hemipentahydrate]: in data set [1] (after 12 weeks of treatment), the “diastolic blood pressure reduction” value is 4.9 (10) mm Hg and the “systolic blood pressure reduction” value is listed as 9.3 (SD 14) mm Hg. Besides, in data set [1] (setting [6]), the “diastolic blood pressure reduction” value is given as 5.1 (10.8) and the “systolic blood pressure reduction” value is on record as 7.5 (15). For the same compound, the “reduction in NT-proBNP in patients with diabetes compared with patients without diabetes” value in data set [2] (12 weeks, prespecified subgroup, interaction p=0.02) is listed as “differentially greater reduction”. In addition, in data set [2] (12 weeks, p=0.01), the “reduction in NT-proBNP versus valsartan after adjustment for the change in blood pressure” value was “greater reduction”. Further, in data set [2] (36 weeks), the NT-proBNP versus baseline entry is given as “remained reduced from baseline”. For the same compound, in data set [2] (after 4 weeks of treatment, p=0.083), the “early reduction in NT-proBNP compared with the valsartan group” value was “not significant”. For the same compound, in data set [2], the “NT-proBNP (pg/ml) at 12 weeks: 12 weeks” value worked out at 605 pg/mL, the “NT-proBNP (pg/ml) at 36 weeks: 36 weeks” value turned out to be 496 pg/mL, the “NT-proBNP (pg/ml) at 12 weeks: Baseline” value is 783 pg/mL and the “NT-proBNP (pg/ml) at 36 weeks: Baseline” value came to 763 pg/mL. In data set [3] (after 36 weeks of treatment, p=0.003), the “Left atrial volume (result in words)” value is on record as “reduced significantly”. Also, the “left atrial dimension (result in words)” value in data set [3] (after 36 weeks of treatment, p=0.034) is recorded as “reduced significantly”. In addition, in data set [3] (at 36 weeks), the “LA Volume, Δ from Baseline” value was -4.61 mL; the “LA dimension, Δ from Baseline” value is on record as −0.15 cm; the “Relative wall thickness, Δ from Baseline” value is listed as “+0.01%”. Further, in data set [3] (baseline), the “LA Volume, Baseline” value stood at 65.26 mL and the “LA dimension, Baseline” value was found to be 3.68 cm. Also, the “NYHA class improvement between groups” value in data set [4] (at 12 weeks, p=0.11) is recorded as “did not differ significantly”. In addition, the “NYHA class compared with the valsartan group” value in data set [4] (at 36 weeks, p=0.05) is “improvement”.

Consider `CCCCC(=O)N(Cc1ccc(-c2ccccc2-c2nnn[nH]2)cc1)[C@H](C(=O)O)C(C)C` [Valsartan, (S)—N-valeryl-N-{[2′-(1H-tetrazole-5-yl)-biphenyl-4-yl]-methyl}-valine, reference compound], for which, in data set [1] (after 12 weeks of treatment), the “diastolic blood pressure reduction” value was 2.1 (11) mm Hg and the “systolic blood pressure reduction” value was 2.9 (17) mm Hg. Also, in data set [1] (setting [6]), the “diastolic blood pressure reduction” value is given as 0.34 (11.5) and the “systolic blood pressure reduction” value is 1.5 (18). Further, in data set [2], the “NT-proBNP (pg/ml) at 12 weeks: 12 weeks” value was determined as 835 pg/mL, the “NT-proBNP (pg/ml) at 36 weeks: 36 weeks” value came to 607 pg/mL, the “NT-proBNP (pg/ml) at 12 weeks: Baseline” value was 862 pg/mL and the “NT-proBNP (pg/ml) at 36 weeks: Baseline” value came to 822 pg/mL. In addition, in data set [3] (at 36 weeks), the “LA Volume Index, Δ from Baseline” value amounted to 0.31 ml/m^2; the “LA Volume, Δ from Baseline” value turned out to be 0.37 mL; the “LA dimension, Δ from Baseline” value is given as −0.08 cm; the “LV mass index, Δ from Baseline” value is listed as −1.93 g/m^2. Besides, the “Relative wall thickness, Δ from Baseline” value in data set [3] (at 36 weeks) is recorded as “+0.01%”. For the same compound, in data set [3] (baseline), the “LA Volume Index, Baseline” value was 36.80 ml/m^2; the “LA Volume, Baseline” value amounted to 68.28 mL; the “LA dimension, Baseline” value is 3.73 cm; the “LV mass index, Baseline” value was found to be 79.45 g/m^2. Further, the deaths entry in data set [5] (among the serious adverse events) is on record as “two”. Besides, in data set [5] (during the trial), the “adverse event atrial fibrillation, number of patients” value came to 8 patients; the “adverse event atrial fibrillation, percent of patients” value was 5.3%; the “one or more serious adverse events, number of patients” value amounted to 30 patients; the “one or more serious adverse events, percent of patients” value is given as 20%. Also, in data set [5] (the LCZ696 patient did not need admission to hospital), the “Angio-oedema, patients” value is reported as “no patients”.
